Experimental findings from patent publication US9682141B2, “Combination of kinase inhibitors and uses thereof” (INTELLIKINE LLC, priority 2011, dated 2017) are described below.

As usually defined, the IC50 is the concentration at which inhibition is half-maximal.

Assay type in all cases: biochemical
The target in one experiment is PI3K δ (Homo sapiens (Human), UniProt O00329). The experiment can be described thus: PI 3-Kinase (human) HTRF assay, p110δ/p85α.
The target of a further experiment is mTORC (Homo sapiens (Human), UniProt P42345). Nature of the experiment: mTOR inhibition assay (radiometric or LanthaScreen TR-FRET).
A further experiment deals with PI3K α (Homo sapiens (Human), UniProt P42336). The experiment can be described thus: PI 3-Kinase (human) HTRF assay, p110α/p85α. (In general: In TR-FRET formats the signal depends on donor and acceptor labels being close together.)
Sequence of PI3K α (P42336 whole entry): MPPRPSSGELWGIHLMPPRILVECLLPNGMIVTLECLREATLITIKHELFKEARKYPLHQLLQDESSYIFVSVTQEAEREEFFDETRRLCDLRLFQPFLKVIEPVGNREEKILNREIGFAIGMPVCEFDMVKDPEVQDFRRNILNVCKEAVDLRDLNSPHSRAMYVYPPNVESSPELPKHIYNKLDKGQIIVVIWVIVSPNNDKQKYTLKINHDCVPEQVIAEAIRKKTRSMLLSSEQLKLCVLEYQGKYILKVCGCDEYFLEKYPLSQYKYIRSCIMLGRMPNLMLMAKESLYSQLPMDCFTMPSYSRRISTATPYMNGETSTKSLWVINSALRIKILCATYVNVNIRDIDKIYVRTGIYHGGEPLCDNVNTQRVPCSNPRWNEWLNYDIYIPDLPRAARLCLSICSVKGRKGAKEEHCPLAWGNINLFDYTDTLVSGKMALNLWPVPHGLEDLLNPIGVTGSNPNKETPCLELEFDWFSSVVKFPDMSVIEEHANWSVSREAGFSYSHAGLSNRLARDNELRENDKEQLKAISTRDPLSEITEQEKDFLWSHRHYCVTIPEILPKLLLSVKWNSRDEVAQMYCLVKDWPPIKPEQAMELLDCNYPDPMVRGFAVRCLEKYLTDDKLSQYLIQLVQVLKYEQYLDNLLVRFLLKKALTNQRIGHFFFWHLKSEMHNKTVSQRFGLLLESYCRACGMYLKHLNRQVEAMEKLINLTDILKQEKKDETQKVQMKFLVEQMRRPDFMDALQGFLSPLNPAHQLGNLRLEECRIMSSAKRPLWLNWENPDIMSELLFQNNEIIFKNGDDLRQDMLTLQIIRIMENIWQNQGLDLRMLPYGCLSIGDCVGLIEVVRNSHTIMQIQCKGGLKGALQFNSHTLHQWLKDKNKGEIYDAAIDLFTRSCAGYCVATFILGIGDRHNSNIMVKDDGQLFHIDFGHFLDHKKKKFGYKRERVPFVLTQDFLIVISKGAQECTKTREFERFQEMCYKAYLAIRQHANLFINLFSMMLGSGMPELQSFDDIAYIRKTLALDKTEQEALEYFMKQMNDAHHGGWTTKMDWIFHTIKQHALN
Sequence of PI3K α (P27986 whole entry partner): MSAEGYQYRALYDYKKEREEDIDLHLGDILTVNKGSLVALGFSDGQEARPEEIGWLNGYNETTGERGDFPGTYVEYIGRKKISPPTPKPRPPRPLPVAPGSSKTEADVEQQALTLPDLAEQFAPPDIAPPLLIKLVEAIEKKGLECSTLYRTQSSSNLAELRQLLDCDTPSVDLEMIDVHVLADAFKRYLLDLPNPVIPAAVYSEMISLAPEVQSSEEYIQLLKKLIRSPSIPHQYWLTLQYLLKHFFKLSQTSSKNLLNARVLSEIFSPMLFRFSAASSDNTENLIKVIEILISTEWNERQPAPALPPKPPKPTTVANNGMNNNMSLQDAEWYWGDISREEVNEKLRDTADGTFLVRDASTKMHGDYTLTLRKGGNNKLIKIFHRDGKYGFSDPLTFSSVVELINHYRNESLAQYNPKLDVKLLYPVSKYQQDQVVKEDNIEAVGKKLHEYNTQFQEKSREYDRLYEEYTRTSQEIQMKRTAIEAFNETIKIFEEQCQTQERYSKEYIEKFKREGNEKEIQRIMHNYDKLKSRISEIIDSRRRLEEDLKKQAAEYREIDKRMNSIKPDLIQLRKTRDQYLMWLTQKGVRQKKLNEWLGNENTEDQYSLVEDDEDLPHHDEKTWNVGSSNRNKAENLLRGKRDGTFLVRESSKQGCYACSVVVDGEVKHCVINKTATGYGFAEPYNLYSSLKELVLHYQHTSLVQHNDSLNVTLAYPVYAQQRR
For the next experiment, the target named is PI3K β (Homo sapiens (Human), UniProt P42338). The experiment can be described thus: PI 3-Kinase (human) HTRF assay, p110β/p85α.
Sequence of PI3K β (P42338 whole entry): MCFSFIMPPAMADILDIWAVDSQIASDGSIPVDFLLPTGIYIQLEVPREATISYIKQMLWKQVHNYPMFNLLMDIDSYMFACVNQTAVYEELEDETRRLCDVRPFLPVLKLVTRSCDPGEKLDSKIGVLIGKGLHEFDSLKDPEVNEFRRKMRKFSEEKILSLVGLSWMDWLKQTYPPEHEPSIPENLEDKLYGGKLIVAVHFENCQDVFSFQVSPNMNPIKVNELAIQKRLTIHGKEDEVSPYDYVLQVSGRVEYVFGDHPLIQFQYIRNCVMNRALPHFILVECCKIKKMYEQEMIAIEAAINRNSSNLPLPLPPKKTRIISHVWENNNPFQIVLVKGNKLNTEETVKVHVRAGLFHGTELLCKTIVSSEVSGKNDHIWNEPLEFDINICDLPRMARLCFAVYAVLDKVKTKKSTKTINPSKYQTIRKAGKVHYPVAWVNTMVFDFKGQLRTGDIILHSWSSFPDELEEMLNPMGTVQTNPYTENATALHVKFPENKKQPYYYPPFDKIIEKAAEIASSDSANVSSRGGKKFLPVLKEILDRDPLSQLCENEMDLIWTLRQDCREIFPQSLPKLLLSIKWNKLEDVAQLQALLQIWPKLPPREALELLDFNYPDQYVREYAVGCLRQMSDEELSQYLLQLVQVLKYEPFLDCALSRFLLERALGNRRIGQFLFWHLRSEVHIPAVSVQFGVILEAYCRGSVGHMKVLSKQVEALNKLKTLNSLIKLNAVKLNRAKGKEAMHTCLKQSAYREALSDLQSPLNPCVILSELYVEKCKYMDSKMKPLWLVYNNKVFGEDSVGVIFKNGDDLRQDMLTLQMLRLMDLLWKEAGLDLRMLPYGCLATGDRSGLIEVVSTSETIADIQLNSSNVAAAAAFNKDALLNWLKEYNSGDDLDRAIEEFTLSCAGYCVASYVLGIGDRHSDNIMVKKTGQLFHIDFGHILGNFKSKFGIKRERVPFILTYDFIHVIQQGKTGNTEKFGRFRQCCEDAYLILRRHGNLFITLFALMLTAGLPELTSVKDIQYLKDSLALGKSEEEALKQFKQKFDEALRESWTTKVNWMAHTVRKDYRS
Sequence of PI3K β (P27986 whole entry partner): as the sequence (P27986 whole entry partner) above
For the next experiment, the target named is PI3K γ (Homo sapiens (Human), UniProt P48736). The experiment can be described thus: PI 3-Kinase (human) HTRF assay, p110γ. To be noted: read-out: PI3K γ IC50.
Sequence of PI3K γ (P48736 whole entry): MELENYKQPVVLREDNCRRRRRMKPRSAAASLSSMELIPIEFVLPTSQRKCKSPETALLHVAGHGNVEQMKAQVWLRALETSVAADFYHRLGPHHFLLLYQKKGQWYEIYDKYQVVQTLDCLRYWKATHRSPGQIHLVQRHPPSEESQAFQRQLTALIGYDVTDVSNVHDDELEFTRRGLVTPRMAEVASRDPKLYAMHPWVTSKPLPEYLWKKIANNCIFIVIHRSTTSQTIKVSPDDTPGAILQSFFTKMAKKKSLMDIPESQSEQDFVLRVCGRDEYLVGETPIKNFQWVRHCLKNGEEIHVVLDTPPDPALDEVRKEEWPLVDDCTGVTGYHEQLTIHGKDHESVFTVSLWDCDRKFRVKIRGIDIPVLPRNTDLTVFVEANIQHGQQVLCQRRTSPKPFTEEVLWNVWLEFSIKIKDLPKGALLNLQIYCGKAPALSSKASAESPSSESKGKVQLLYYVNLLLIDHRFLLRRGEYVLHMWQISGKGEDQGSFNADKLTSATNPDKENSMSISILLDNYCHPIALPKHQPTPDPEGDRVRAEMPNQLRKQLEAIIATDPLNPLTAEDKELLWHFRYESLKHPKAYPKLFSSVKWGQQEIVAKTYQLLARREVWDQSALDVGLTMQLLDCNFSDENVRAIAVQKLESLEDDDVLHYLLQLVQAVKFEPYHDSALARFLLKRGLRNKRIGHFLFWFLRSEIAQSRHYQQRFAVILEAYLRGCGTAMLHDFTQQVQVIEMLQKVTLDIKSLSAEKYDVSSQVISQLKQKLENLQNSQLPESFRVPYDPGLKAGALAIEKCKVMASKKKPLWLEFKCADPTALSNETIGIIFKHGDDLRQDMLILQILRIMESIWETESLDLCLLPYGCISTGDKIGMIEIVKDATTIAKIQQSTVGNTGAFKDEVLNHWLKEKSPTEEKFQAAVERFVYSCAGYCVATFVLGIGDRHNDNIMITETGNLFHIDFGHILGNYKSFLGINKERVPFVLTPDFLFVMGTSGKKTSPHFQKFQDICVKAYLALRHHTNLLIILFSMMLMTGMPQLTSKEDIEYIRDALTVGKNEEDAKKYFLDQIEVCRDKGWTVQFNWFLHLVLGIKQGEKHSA

A value given as a limit tells only on which side of the number the result lay.

Sequence of PI3K δ (O00329 whole entry): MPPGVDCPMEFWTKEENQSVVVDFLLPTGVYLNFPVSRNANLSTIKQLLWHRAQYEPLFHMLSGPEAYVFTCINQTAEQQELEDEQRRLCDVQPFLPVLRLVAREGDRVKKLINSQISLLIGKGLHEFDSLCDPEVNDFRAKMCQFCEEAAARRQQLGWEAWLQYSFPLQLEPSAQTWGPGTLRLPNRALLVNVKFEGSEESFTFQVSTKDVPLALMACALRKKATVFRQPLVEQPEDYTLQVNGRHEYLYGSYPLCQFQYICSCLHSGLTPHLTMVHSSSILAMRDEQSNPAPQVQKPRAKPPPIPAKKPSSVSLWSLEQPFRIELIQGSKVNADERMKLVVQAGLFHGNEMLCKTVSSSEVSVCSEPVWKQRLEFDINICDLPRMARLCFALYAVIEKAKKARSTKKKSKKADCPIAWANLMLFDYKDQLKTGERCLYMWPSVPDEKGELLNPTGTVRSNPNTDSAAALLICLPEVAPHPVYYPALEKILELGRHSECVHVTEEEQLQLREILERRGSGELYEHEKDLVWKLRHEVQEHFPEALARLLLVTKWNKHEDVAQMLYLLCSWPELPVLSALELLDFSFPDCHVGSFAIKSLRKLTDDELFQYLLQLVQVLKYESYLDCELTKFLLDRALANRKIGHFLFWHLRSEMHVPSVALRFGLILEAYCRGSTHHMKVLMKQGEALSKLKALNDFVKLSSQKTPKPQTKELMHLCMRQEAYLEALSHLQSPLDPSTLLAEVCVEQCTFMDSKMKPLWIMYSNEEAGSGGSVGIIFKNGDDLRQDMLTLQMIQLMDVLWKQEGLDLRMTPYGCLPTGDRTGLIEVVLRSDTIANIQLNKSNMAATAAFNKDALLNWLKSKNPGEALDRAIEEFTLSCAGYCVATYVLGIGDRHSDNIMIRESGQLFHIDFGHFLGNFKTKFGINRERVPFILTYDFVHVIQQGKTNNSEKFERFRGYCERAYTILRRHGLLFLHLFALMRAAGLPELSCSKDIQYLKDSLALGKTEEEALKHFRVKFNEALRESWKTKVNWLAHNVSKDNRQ
Sequence of PI3K δ (P27986 whole entry partner): as the sequence (P27986 whole entry partner) above
Method for PI3K β: (§1) An exemplary system is PI 3-Kinase (human) HTRF™ Assay from Upstate. […] Briefly, the assay is a time resolved FRET assay that indirectly measures PIP3 product formed by the activity of a PI3-K. The kinase reaction is performed in a microtitre plate (e.g., a 384 well microtitre plate). The total reaction volume is approximately 20 ul per well. In the first step, each well receives 2 ul of test compound in 20% dimethylsulphoxide resulting in a 2% DMSO final concentration. Next, approximately 14.5 ul of a kinase/PIP2 mixture (diluted in 1× reaction buffer) is added per well for a final concentration of 0.25-0.3 ug/ml kinase and 10 μM PIP2. The plate is sealed and incubated for 15 minutes at room temperature. To start the reaction, 3.5 ul of ATP (diluted in 1× reaction buffer) is added per well for a final concentration of 10 μM ATP. The plate is sealed and incubated for 1 hour at room temperature. The reaction is stopped by adding 5 ul of Stop Solution per well and then 5 ul of Detection Mix is added per well. The plate is sealed, incubated for 1 hour at room temperature, and then read on an appropriate plate reader. Data is analyzed and IC50s are generated using GraphPad Prism 5. For PI3K α, β, δ, and γ, the nM concentration of inhibitor to reach IC50 is provided.
Method for PI3K δ: as §1

With `N#Cc1cnc2ccc(-c3ccc4oc(N)nc4c3)cc2c1`, the IC50 on PI3K δ was above 10 µM; against mTORC, below 10 µM; against PI3K α, below 1 µM; against PI3K β it was above 10 µM; at PI3K γ, below 1 µM.
For the compound `Nc1nc2cc(-c3ccc4ncc(N5CC(N6CCN(CCO)CC6)C5)nc4n3)ccc2o1`, the 50% inhibitory concentration (IC50) was below 10 µM at PI3K δ; above 10 µM against mTORC; below 0.1 µM against PI3K α; below 10 µM on PI3K β; below 10 µM on PI3K γ.
Regarding `CN1CCN(C(=O)C2CN(c3cnc4ccc(-c5ccc6oc(N)nc6c5)cc4n3)C2)CC1` [drawing 360], the half-inhibitory concentration (IC50) against PI3K δ is below 1 µM; against mTORC, below 10 µM; against PI3K α, below 0.1 µM; against PI3K β it was below 1 µM; on PI3K γ, below 10 µM.
Consider `C[C@@H]1CN(C2CN(c3cnc4ccc(-c5ccc6oc(N)nc6c5)nc4c3)C2)CCN1`, for which the IC50 against PI3K δ is below 1 µM; against mTORC, above 10 µM; on PI3K α, below 0.1 µM; against PI3K β, below 10 µM; on PI3K γ, below 1 µM.
Take `Nc1nc2cc(-c3ccc4ncc(=O)[nH]c4c3)ccc2o1`: the IC50 on PI3K δ was above 10 µM; at mTORC it was below 1 µM; at PI3K α, below 0.1 µM; on PI3K β it was below 1 µM; on PI3K γ, below 0.1 µM.
In the case of `Cc1nccn1C1CN(c2cnc3ccc(-c4ccc5oc(N)nc5c4)nc3c2)C1`, the concentration for half-maximal inhibition (IC50) is below 1 µM against PI3K δ; above 10 µM at mTORC; below 0.1 µM against PI3K α; below 10 µM at PI3K β; below 0.1 µM on PI3K γ.
On to `CN1CCN(C(=O)c2cnc3ccc(-c4ccc5oc(N)nc5c4)cn23)CC1` [Compound 44], for which the 50% inhibitory concentration (IC50) was below 10 µM against PI3K δ, below 10 µM on mTORC, below 0.1 µM against PI3K α and below 10 µM on PI3K γ.
Regarding `C[C@@H]1CN(C2CN(c3cnc4ccc(-c5ccc6oc(N)nc6c5)nc4c3)C2)CCN1C`, the IC50 against PI3K δ is below 1 µM; on mTORC, above 10 µM; on PI3K α, below 0.1 µM; on PI3K β, below 10 µM.
`CN1CCC(Nc2ncnc3ccc(-c4ccc5oc(N)nc5c4)cc23)CC1` [Compound 35]: the half-inhibitory concentration (IC50) against PI3K δ is below 0.1 µM; against mTORC it was below 10 µM; against PI3K α, below 0.1 µM; on PI3K γ, below 0.1 µM.
With `Nc1nc2cc(-c3ccc4ncc(-c5ccc6nc(N)oc6c5)n4c3)ccc2o1` [Compound 50], the IC50 against PI3K δ is below 10 µM; against mTORC, above 10 µM; at PI3K α, below 0.1 µM; on PI3K γ, below 0.1 µM.
Consider `Nc1nc2cc(-c3ccc4ncn(C5CCOCC5)c(=O)c4c3)ccc2o1`, for which the IC50 is above 10 µM at PI3K δ, above 10 µM against mTORC, below 1 µM against PI3K α and above 10 µM at PI3K γ.
As for `Nc1nc2cc(-c3ccc4ncc(-c5ccnc(N6CCOCC6)c5)n4c3)ccc2o1` [Compound 52], the half-maximal inhibitory concentration (IC50) on PI3K δ is below 0.1 µM; at mTORC, below 10 µM; on PI3K α, below 0.1 µM; at PI3K γ it was below 0.1 µM.
For `CN1CCN(c2ccc(-c3cnc4ccc(-c5ccc6oc(N)nc6c5)cn34)cn2)CC1` [Compound 42], the IC50 on PI3K δ was below 1 µM; on mTORC it was above 10 µM; against PI3K α it was below 0.1 µM; on PI3K γ it was below 1 µM.
For `Nc1nc2cc(-c3ccc4ncc(OC5CCOCC5)nc4c3)ccc2o1` [Compound 49], the IC50 against PI3K δ was below 10 µM; at mTORC, below 10 µM; against PI3K α it was below 0.1 µM; on PI3K γ it was below 1 µM.
For the compound `Nc1nc2cc(-c3ccc4nccn4c3)ccc2o1` [Compound 40], the concentration for half-maximal inhibition (IC50) is above 10 µM against PI3K δ, below 10 µM on mTORC, below 10 µM against PI3K α and below 10 µM at PI3K γ.
In the case of `C[C@H]1COCCN1C1CN(c2cnc3ccc(-c4ccc5oc(N)nc5c4)nc3n2)C1`, the half-inhibitory concentration (IC50) on PI3K δ is below 10 µM; on mTORC, above 10 µM; at PI3K α, below 0.1 µM; on PI3K β, above 10 µM.
